Measurements as given in the supplement of paper PMC11061612.

Assays:
Experiment in all cases: Bliss excess, mean over the matrix (fraction); higher = more synergy
NCI-H28 (Mesothelioma) = system: NCI-H28 (Mesothelioma)
How it was run: (§1)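 After 24 hours at 37°C and 5% CO2 in 1536-well plates, cells in DMEM/F12 or RPMI plus 10% FBS received two-drug dose matrices for 72 hours. Viability came from CellTiter-Glo 2.0 luminescence and was scaled as inhibition, anchored at 0 by vehicle wells and at 1 by blank wells. Combination Emax is taken as the second-highest inhibition in the matrix, and Bliss excess as the observed combination effect less EA + EB − EA·EB, with EA and EB the single-agent effects.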

[1] = system: LoVo (Colorectal Carcinoma)
How it was run: as §1

[2] = system: SUP-T1 (T-Lymphoblastic Leukemia)
How it was run: as §1

COLO-829 (Melanoma) = system: COLO-829 (Melanoma)
How it was run: as §1

[3] = system: HARA (Squamous Cell Lung Carcinoma)
How it was run: as §1

[4] = system: TE-4 (Esophageal Squamous Cell Carcinoma)
How it was run: as §1

[5] = system: HDLM-2 (Hodgkin's Lymphoma)
How it was run: as §1

[6] = system: NCI-H747 (Colorectal Carcinoma)
How it was run: as §1

[7] = system: SK-OV-3 (Ovarian Carcinoma)
How it was run: as §1

[8] = system: KARPAS-231 (B-Cell Non-Hodgkin's Lymphoma)
How it was run: as §1

[9] = system: MDA-MB-468 (Breast Carcinoma)
How it was run: as §1

[10] = system: CAL-54 (Kidney Carcinoma)
How it was run: as §1

[11] = system: OVCAR-8 (Ovarian Carcinoma)
How it was run: as §1

[12] = system: SW626 (Colorectal Carcinoma)
How it was run: as §1

[13] = system: KYSE-410 (Esophageal Squamous Cell Carcinoma)
How it was run: as §1

NB14 (Neuroblastoma) = system: NB14 (Neuroblastoma)
How it was run: as §1

[14] = system: MHH-PREB-1 (B-Cell Non-Hodgkin's Lymphoma)
How it was run: as §1

[15] = system: LU-139 (Small Cell Lung Carcinoma)
How it was run: as §1

Mewo (Melanoma) = system: Mewo (Melanoma)
How it was run: as §1

[16] = system: NCI-H69 (Small Cell Lung Carcinoma)
How it was run: as §1

Row | SMILES | Bliss excess (NCI-H28 (Mesothelioma)) | Bliss excess [1] | Bliss excess [2] | Bliss excess (COLO-829 (Melanoma)) | Bliss excess [3] | Bliss excess [4] | Bliss excess [5] | Bliss excess [6] | Bliss excess [7] | Bliss excess [8] | Bliss excess [9] | Bliss excess [10] | Bliss excess [11] | Bliss excess [12] | Bliss excess [13] | Bliss excess (NB14 (Neuroblastoma)) | Bliss excess [14] | Bliss excess [15] | Bliss excess (Mewo (Melanoma)) | Bliss excess [16]
1 | CC(=O)Nc1cccc(-n2c(=O)n(C3CC3)c(=O)c3c(Nc4ccc(I)cc4F)n(C)c(=O)c(C)c32)c1 [Trametinib] + Cc1nc(-c2cn3c(n2)-c2ccc(-c4cnn(C(C)(C)C(N)=O)c4)cc2OCC3)n(C(C)C)n1 [Taselisib] (first compound max 1 µM, 7x7, partner max 10 µM) | 0.0616 | -0.0092 | 0.0363 | 0.234 | 0.162 | 0.0758 | 0.0406 | -0.0203 | 0.0582 | -0.0605 | -0.0919 | 0.0303 | 0.121 | 0.0644 | 0.168 | 0.0702 | 0.0277 | -0.0203 | 0.0975 | -0.0257
2 | CN(CCO)CC[C@H](CSc1ccccc1)Nc1ccc(S(=O)(=O)NC(=O)c2ccc(N3CCC([C@@H](O)c4ccccc4-c4ccc(Cl)cc4)CC3)cc2)cc1S(=O)(=O)C(F)(F)F [AZD4320] + Cc1cc2ncnn2cc1Nc1ncc2c(n1)n(C1CCOCC1)c(=O)n2C [AZD7648] (first compound max 1 µM, 7x7, partner max 10 µM) | -0.055 | 0.0195 | -0.0222 | -0.04 | -0.0133 | -0.0202 | -0.0018 | -0.0192 | -0.063 | 0.036 | -0.0012 | -0.0122 | -0.049 | -0.0526 | -0.0406 | 0.0356 | -0.0041 | 0.0151 | -0.0104 | -0.0474
3 | COc1cccc(OCCCN)c1-c1cc(Nc2cnc(C#N)cn2)n[nH]1 [Prexasertib] + O=C(c1cc(Cc2n[nH]c(=O)c3ccccc23)ccc1F)N1CCN(C(=O)C2CC2)CC1 [Olaparib] (first compound max 1 µM, 7x7, partner max 10 µM) | -0.0613 | -0.129 | -0.0966 | -0.058 | -0.0682 | 0.015 | -0.046 | 0.0024 | -0.12 | -0.0206 | -0.106 | -0.0942 | -0.0475 | -0.074 | -0.0463 | -0.0553 | -0.125 | -0.0401 | -0.0708 | 0.0332
4 | CN(C)CCCOc1ccc(-c2ccc3ncc4c(c3c2)n(C2CCOCC2)c(=O)n4C)cn1 [AZD0156] + O=C(c1cc(Cc2n[nH]c(=O)c3ccccc23)ccc1F)N1CCN(C(=O)C2CC2)CC1 [Olaparib] (first compound max 3 µM, partner max 3 µM) | -0.0415 | 0.0346 | 0.0598 | -0.0578 | 0.0504 | 0.0387 | 0.0319 | -0.0461 | -0.0179 | 0.0651 | 0.0645 | 0.034 | 0.0073 | -0.0326 | 0.0007 | 0.218 | 0.0175 | 0.0352 | -0.0711 | 0.0386
5 | Cc1cc2ncnn2cc1Nc1ncc2c(n1)n(C1CCOCC1)c(=O)n2C [AZD7648] + O=C(c1cc(Cc2n[nH]c(=O)c3ccccc23)ccc1F)N1CCN(C(=O)C2CC2)CC1 [Olaparib] (first compound max 10 µM, 7x7, partner max 10 µM) | -0.0378 | -0.0382 | -0.0488 | -0.0378 | -0.0114 | 0.0061 | -0.0558 | -0.0465 | -0.0478 | 0.0132 | -0.0504 | -0.0408 | -0.0103 | -0.0584 | -0.0466 | -0.0534 | -0.026 | -0.0492 | -0.0885 | -0.0151
6 | Cc1cc2ncnn2cc1Nc1ncc2c(n1)n(C1CCOCC1)c(=O)n2C [AZD7648] + C=CCn1c(=O)c2cnc(Nc3ccc(N4CCN(C)CC4)cc3)nc2n1-c1cccc(C(C)(C)O)n1 [AZD1775] (first compound max 10 µM, partner max 1 µM) | 0.0291 | -0.0658 | 0.0169 | -0.0047 | -0.0542 | -0.079 | -0.0387 | -0.0108 | -0.0663 | -0.0309 | -0.0044 | 0.016 | 0.0102 | 0.0341 | -0.0094 | 0.0014 | 0.028 | -0.0642 | 0.0455 | -0.118
7 | CN(C)CCCOc1ccc(-c2ccc3ncc4c(c3c2)n(C2CCOCC2)c(=O)n4C)cn1 [AZD0156] + C[C@@H]1COCCN1C2=NC(=NC(=C2)C3(CC3)[S@](=N)(=O)C)C4=C5C=CNC5=NC=C4 [AZD6738] (first compound max 1 µM, 7x7, partner max 10 µM) | -0.0606 | -0.0191 | -0.0344 | -0.0327 | 0.0257 | 0.0507 | -0.0448 | -0.0103 | -0.015 | 0.0732 | -0.011 | -0.0136 | 0.0296 | -0.0214 | -0.0201 | -0.0448 | 0.0147 | -0.0323 | -0.0365 | -0.0233
8 | CN(CCO)CC[C@H](CSc1ccccc1)Nc1ccc(S(=O)(=O)NC(=O)c2ccc(N3CCC([C@@H](O)c4ccccc4-c4ccc(Cl)cc4)CC3)cc2)cc1S(=O)(=O)C(F)(F)F [AZD4320] + C=CCn1c(=O)c2cnc(Nc3ccc(N4CCN(C)CC4)cc3)nc2n1-c1cccc(C(C)(C)O)n1 [AZD1775] (first compound max 1 µM, partner max 1 µM) | 0.0115 | 0.0093 | 0.0212 | -0.0167 | -0.0129 | -0.0044 | 0.106 | -0.0238 | 0.0069 | 0.117 | 0.032 | 0.146 | -0.012 | -0.0124 | -0.0313 | 0.0415 | -0.0454 | 0.0145 | 0.0306 | -0.0213
9 | CC1(C)CCC(CN2CCN(c3ccc(C(=O)NS(=O)(=O)c4ccc(NCC5CCOCC5)c([N+](=O)[O-])c4)c(Oc4cnc5[nH]ccc5c4)c3)CC2)=C(c2ccc(Cl)cc2)C1 [Venetoclax] + CN(C)CCCOc1ccc(-c2ccc3ncc4c(c3c2)n(C2CCOCC2)c(=O)n4C)cn1 [AZD0156] (first compound max 1 µM, 7x7, partner max 1 µM) | -0.0547 | -0.0251 | -0.0294 | -0.0264 | -0.0121 | -0.0191 | -0.0015 | -0.0497 | -0.0637 | -0.0599 | -0.0294 | -0.0085 | -0.0089 | -0.0381 | -0.0377 | -0.0017 | 0.0029 | 0.0014 | -0.0483 | 0.002
10 | C=CCn1c(=O)c2cnc(Nc3ccc(N4CCN(C)CC4)cc3)nc2n1-c1cccc(C(C)(C)O)n1 [AZD1775] + C[C@@H]1COCCN1C2=NC(=NC(=C2)C3(CC3)[S@](=N)(=O)C)C4=C5C=CNC5=NC=C4 [AZD6738] (first compound max 1 µM, partner max 10 µM) | 0.0066 | -0.0212 | -0.0352 | -0.0194 | -0.0239 | 0.0485 | -0.0511 | -0.0002 | -0.0067 | 0.0545 | 0.0344 | -0.0377 | 0.0818 | 0.0354 | -0.0061 | 0.0462 | 0.0075 | -0.0149 | 0.026 | 0.0962
11 | CN(CCO)CC[C@H](CSc1ccccc1)Nc1ccc(S(=O)(=O)NC(=O)c2ccc(N3CCC([C@@H](O)c4ccccc4-c4ccc(Cl)cc4)CC3)cc2)cc1S(=O)(=O)C(F)(F)F [AZD4320] + C1CN(CCC1(C(=O)N[C@@H](CCO)C2=CC=C(C=C2)Cl)N)C3=NC=NC4=C3C=CN4 [Capivasertib] (first compound max 1 µM, 7x7, partner max 3 µM) | -0.0821 | -0.071 | -0.0639 | -0.0988 | -0.0268 | -0.0317 | -0.0284 | -0.0682 | -0.0663 | 0.0407 | -0.0528 | -0.0694 | -0.0468 | -0.0682 | -0.0686 | 0.0472 | -0.029 | -0.0328 | -0.0262 | -0.0153
12 | NC1(C(=O)N[C@@H](CCO)c2ccc(Cl)cc2)CCN(c2ncnc3[nH]ccc23)CC1 [Capivasertib] + Cn1cnc2c(F)c(Nc3ccc(Br)cc3Cl)c(C(=O)NOCCO)cc21 [Selumetinib] (first compound max 10 µM, 7x7, partner max 10 µM) | -0.0231 | -0.004 | 0.0063 | 0.0367 | -0.0186 | 0.102 | -0.0118 | -0.0187 | -0.0629 | -0.0465 | 0.0736 | 0.0079 | 0.037 | 0.0124 | 0.0521 | -0.0654 | -0.0067 | -0.0165 | 0.0069 | -0.0198
13 | Cc1cc2ncnn2cc1Nc1ncc2c(n1)n(C1CCOCC1)c(=O)n2C [AZD7648] + C[C@@H]1COCCN1C2=NC(=NC(=C2)C3(CC3)[S@](=N)(=O)C)C4=C5C=CNC5=NC=C4 [AZD6738] (first compound max 10 µM, 7x7, partner max 10 µM) | 0.081 | -0.0058 | 0.0052 | -0.0088 | -0.0073 | 0.054 | -0.0357 | 0.0005 | 0.0411 | 0.0018 | -0.0063 | -0.0183 | 0.0012 | 0.0302 | 0.0285 | -0.0026 | 0.0336 | 0.0121 | -0.0217 | -0.0348
14 | CCc1c2c(nc3ccc(O)cc13)-c1cc3c(c(=O)n1C2)COC(=O)[C@]3(O)CC [SN-38] + CN(C)CCCOc1ccc(-c2ccc3ncc4c(c3c2)n(C2CCOCC2)c(=O)n4C)cn1 [AZD0156] (first compound max 0.3 µM, 7x7, partner max 1 µM) | -0.0839 | 0.0135 | -0.0214 | -0.0257 | 0.112 | 0.0185 | -0.0809 | 0.0019 | -0.0132 | 0.0202 | 0.0309 | 0.005 | 0.0058 | -0.0379 | -0.0542 | 0.0191 | 0.0408 | -0.118 | -0.0722 | -0.0197
